A value given as a limit tells only on which side of the number the result lay.

The values that follow come from ChEMBL document CHEMBL1158561, “Synthesis of 4-(3-biaryl)quinoline sulfones as potent liver X receptor agonists” (Bioorg Med Chem Lett, 2010).

For data set [1], the system named is Huh-7. Description: Upregulation of SREB1c mRNA level in human HuH7 cells. The format is functional, cell-based.
Data set [2] has as its system HepG2. Description: cells. The following applies: Homo sapiens.
Data set [3] in a line: Half life in rat liver microsome. The format is ADME. As to conditions: liver microsomes. For orientation: Liver microsomes are vesicles of endoplasmic reticulum, rich in cytochrome P450 enzymes.
The test system of data set [4] is J774. Description: cells. The following applies: Mus musculus.
A short description of data set [5]: Half life in human liver microsome. The following applies: liver microsomes. In kind it is ADME.
Data set [6] concerns the target T1, Oxysterols receptor LXR-alpha (Homo sapiens, UniProt Q13133).
T1 sequence (Q13133 whole entry): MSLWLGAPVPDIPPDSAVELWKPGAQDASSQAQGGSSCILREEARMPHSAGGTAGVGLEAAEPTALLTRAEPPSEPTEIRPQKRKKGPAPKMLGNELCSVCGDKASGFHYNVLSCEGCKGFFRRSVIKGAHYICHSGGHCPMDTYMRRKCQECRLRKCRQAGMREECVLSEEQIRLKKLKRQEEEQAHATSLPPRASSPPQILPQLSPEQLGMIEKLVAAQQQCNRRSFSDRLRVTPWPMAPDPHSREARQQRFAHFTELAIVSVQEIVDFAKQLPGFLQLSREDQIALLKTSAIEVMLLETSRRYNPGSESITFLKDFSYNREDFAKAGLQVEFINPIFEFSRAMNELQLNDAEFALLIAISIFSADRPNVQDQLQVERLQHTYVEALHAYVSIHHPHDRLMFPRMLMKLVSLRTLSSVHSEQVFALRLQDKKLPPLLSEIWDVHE
Description: Displacement of [3H]T0901317 from LXRalpha ligand binding domain. In general terms: In a radioligand displacement assay an active substance lowers the binding of a labelled ligand.

Data set [7] can be described thus: AUC (0 to infinity) in C57 mouse at 10 mg/kg, po. In kind it is ADME, organism-based. On the set-up: time infinity, dose 10 mg/kg, route oral. The following applies: plasma.
Data set [8] in a line: Half life in C57 mouse at 10 mg/kg, po. In kind it is ADME, organism-based. As to conditions: in vivo. The arrangement: dose 10 mg/kg, route oral.
The nature of data set [9]: Cmax in C57 mouse at 10 mg/kg, po. The format is ADME, organism-based. The arrangement: dose 10 mg/kg, route oral. As to conditions: in vivo.
Data set [10] in a line: Tmax in C57 mouse at 10 mg/kg, po. The format is ADME, organism-based. The arrangement: dose 10 mg/kg, route oral. As to conditions: in vivo.
Data set [11] in a line: Oral bioavailability in C57 mouse at 10 mg/kg. The format is ADME, organism-based. As to conditions: in vivo.
Data set [12] has as its target Oxysterols receptor LXR-beta (Homo sapiens, UniProt P55055). Description: Displacement of [3H]T0901317 from LXRbeta ligand binding domain.

Chain of Oxysterols receptor LXR-beta (P55055 whole entry, the tested form may be a part): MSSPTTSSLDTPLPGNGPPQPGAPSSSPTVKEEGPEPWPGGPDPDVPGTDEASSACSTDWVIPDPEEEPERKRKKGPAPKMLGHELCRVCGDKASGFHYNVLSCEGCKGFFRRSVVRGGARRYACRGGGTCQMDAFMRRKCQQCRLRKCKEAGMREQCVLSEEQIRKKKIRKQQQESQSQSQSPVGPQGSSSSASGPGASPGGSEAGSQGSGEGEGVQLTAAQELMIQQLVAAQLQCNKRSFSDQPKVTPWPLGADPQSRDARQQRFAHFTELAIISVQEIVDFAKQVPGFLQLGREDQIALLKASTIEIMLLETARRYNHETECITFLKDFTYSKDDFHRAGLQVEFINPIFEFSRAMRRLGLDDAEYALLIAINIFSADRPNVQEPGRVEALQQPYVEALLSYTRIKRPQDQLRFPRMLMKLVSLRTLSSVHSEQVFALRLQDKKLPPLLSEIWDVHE

The term EC50 denotes the concentration giving half of the maximal effect. Read a high EC50 as a need for much substance. By half-life is commonly meant the time in which the quantity being followed falls by half. High values mean slow loss, low ones fast loss. Take `Cc1cnc2c(C(F)(F)F)cccc2c1-c1cccc(-c2cccc(S(C)(=O)=O)c2)c1`: the results for the EC50 in data set [1], in data set [2] and in data set [4] were 52 nM, 23 nM and 23 nM, respectively. In data set [3], this molecule showed a half-life of more than 30 min.
For the molecule `CCS(=O)(=O)c1cccc(-c2cccc(-c3c(C)cnc4c(C(F)(F)F)cccc34)c2)c1`, the half-maximal effective concentration (EC50) turned out to be 250 nM in data set [1], 190 nM in data set [2] and 190 nM in data set [4]. For the same molecule, the half-life in data set [3] and in [5] was more than 30 min each time.
Turning to `CCCc1cnc2c(C(F)(F)F)cccc2c1-c1cccc(-c2cccc(S(C)(=O)=O)c2)c1`, the EC50 in [1] is 8 nM; in data set [2] it was 0.4 nM; in [4], 0.4 nM. The half-life in data set [3] and in data set [5] was more than 30 min each time.
Consider `CC(C)c1cnc2c(C(F)(F)F)cccc2c1-c1cccc(-c2cccc(S(C)(=O)=O)c2)c1`, for which the EC50 in data set [1] worked out at 6 nM; in [2], 0.5 nM; in [4] it was 0.5 nM. Besides, the half-life in data set [3] and in data set [5] was more than 30 min throughout.
`CS(=O)(=O)c1cc(-c2cccc(-c3ccnc4c(C(F)(F)F)cccc34)c2)c(F)cc1F`: the EC50 in data set [1] amounted to 132 nM; in data set [2], 133 nM; in data set [4], 11 nM. Further, the half-life in data set [3] and in [5] was more than 30 min throughout.
Turning to `CS(=O)(=O)c1ccc(-c2cccc(-c3c(Cc4ccccc4)cnc4c(C(F)(F)F)cccc34)c2)cc1`, the EC50 in data set [1], in data set [2] and in data set [4] was 571 nM in each case. Besides, the figures for the half-life in data set [3] and in data set [5] were 7 min and 27 min, respectively.
In the case of `O=S(=O)(c1ccccc1)N(CC(F)(F)F)c1ccc(C(O)(C(F)(F)F)C(F)(F)F)cc1` [T091317], the EC50 in data set [1] is 36 nM; in data set [2], 107 nM. In addition, the half-life in [3] and in [5] was more than 30 min in each case.
As for `CCc1cnc2c(C(F)(F)F)cccc2c1-c1cccc(-c2cccc(S(C)(=O)=O)c2)c1`, the EC50 was 8 nM in data set [1], 0.7 nM in data set [2] and 0.7 nM in data set [4]. Further, the half-life in [3] and in data set [5] was more than 30 min throughout.
As for `Cc1cnc2c(C(F)(F)F)cccc2c1-c1cccc(-c2ccc(F)c(S(C)(=O)=O)c2)c1`, the half-life in data set [3] was 19 min; in [5], more than 30 min.
Consider `CS(=O)(=O)c1cc(-c2cccc(-c3ccnc4c(C(F)(F)F)cccc34)c2)ccc1F`, for which the EC50 is 41 nM in data set [2] and 140 nM in data set [4]. Also, the values for the half-life in data set [3] and in data set [5] were 12 min and more than 30 min, respectively.
Take `Cc1ccc(-c2cccc(-c3c(C)cnc4c(C(F)(F)F)cccc34)c2)cc1S(C)(=O)=O`: the half-life is 27 min in data set [3] and more than 30 min in data set [5].
For orientation: IC50 means the concentration at which inhibition is half-maximal. Low readings indicate inhibition by little substance, high ones a need for much substance. With `Cc1cnc2c(C(F)(F)F)cccc2c1-c1cccc(-c2ccc(S(C)(=O)=O)cc2)c1`, the IC50 in data set [6] was more than 1000 nM. The half-life in [3] and in data set [5] was more than 30 min in each case.
Consider `Cc1cnc2c(C(F)(F)F)cccc2c1-c1cccc(-c2cc(S(C)(=O)=O)c(F)cc2F)c1`, for which the half-life in [3] and in data set [5] was more than 30 min each time.
In general, AUC(0-inf) refers to the area under the concentration-time curve extrapolated to infinity. In general, Cmax refers to the peak of the concentration-time curve. In general, Tmax refers to the time at which the peak concentration occurs. Usually bioavailability stands for dose-corrected exposure relative to a reference, in per cent. Low readings indicate poor availability, high ones good availability. `CS(=O)(=O)c1cccc(-c2cccc(-c3ccnc4c(C(F)(F)F)cccc34)c2)c1` gave an AUC(0-inf) in data set [7] of 3010 ng·h/mL. In addition, the figures for the EC50 in data set [1], in data set [2] and in data set [4] were 440 nM, 77 nM and 77 nM, respectively. For the same molecule, the half-life in data set [8] was 834 min; in [3], more than 30 min; in [5], more than 30 min. The highest level in [9] (Cmax) was 106 ng/mL. For the same molecule, the Tmax in data set [10] was 60 min. The molecule further displayed a bioavailability in [11] of 100%.
As for `CS(=O)(=O)c1cccc(-c2cccc(-c3c(Cc4ccccc4)cnc4c(C(F)(F)F)cccc34)c2)c1`, the half-life in data set [3] was 16 min.
For `CCS(=O)(=O)c1cccc(-c2cccc(-c3ccnc4c(C(F)(F)F)cccc34)c2)c1`, the figures for the EC50 in data set [1], in data set [2] and in data set [4] were 521 nM, 156 nM and 156 nM, respectively. Moreover, the half-life in data set [3] and in [5] was more than 30 min throughout.
In the case of `CS(=O)(=O)c1ccc(-c2cccc(-c3ccnc4c(C(F)(F)F)cccc34)c2)cc1`, the IC50 in data set [12] and in data set [6] was more than 1000 nM each time. In addition, the half-life in data set [3] and in data set [5] was more than 30 min in each case.
With `COc1ccc(-c2cccc(-c3c(C)cnc4c(C(F)(F)F)cccc34)c2)cc1S(C)(=O)=O`, in [6], the IC50 is more than 1000 nM. This molecule displayed a half-life in data set [5] of more than 30 min.
